Calls of active or inactive are those of the source. The rule behind the calls is not given here.
What was measured:
MDA-MB-231 [1] = assay: Induction of apoptosis in human MDA-MB-231 cells assessed as early apoptotic cells at 16 nM incubated for 24 hrs by AnnexinV-FITC/PI staining based flow cytometry (reference value: 0%); type: functional
MDA-MB-231 [2] = assay: Induction of apoptosis in human MDA-MB-231 cells assessed as necrotic cells at 16 nM incubated for 24 hrs by AnnexinV-FITC/PI staining based flow cytometry (reference value: 0.034%); type: functional
[3] = Toxicity in BALB/c nude mouse xenografted with human MDA-MB-231 cells assessed as appearance of apoptotic/necrotic cells in heart at 5 mg/kg, iv administered once every 3 days for 27 days starting from day 3 by H and E staining based analysis; type: organism-based; conditions: in vivo, 576 h, time 24 day
[4] = Toxicity in BALB/c nude mouse xenografted in human MDA-MB-231 cells assessed as increase in ALP level at 5 mg/kg, iv administered once every 3 days for 27 days starting from day 3; type: organism-based; conditions: in vivo, 576 h, time 24 day
[5] = Toxicity in BALB/c nude mouse xenografted in human MDA-MB-231 cells assessed as increase in ALT level at 5 mg/kg, iv administered once every 3 days for 27 days starting from day 3; type: organism-based; conditions: in vivo, 576 h, time 24 day
MDA-MB-231 [6] = assay: Induction of apoptosis in human MDA-MB-231 cells assessed as viable cells at 16 nM incubated for 24 hrs by AnnexinV-FITC/PI staining based flow cytometry (reference value: 99.9%); type: functional; conditions: read-out: Activity
[7] = Toxicity in BALB/c nude mouse xenografted with human MDA-MB-231 cells assessed as appearance of apoptotic/necrotic cells in kidney at 5 mg/kg, iv administered once every 3 days for 27 days starting from day 3 by H and E staining based analysis; type: organism-based; conditions: in vivo, 576 h, time 24 day
[8] = Drug uptake in ROR1-positive human MDA-MB-231 cells assessed as increase in fluorescence intensity incubated for 0.25 to 2 hrs by Hoechst 33342 staining based confocal fluorescence microscopic analysis; type: ADME, cell-based; conditions: time 0.25-2 hrs
[9] = Toxicity in BALB/c nude mouse xenografted with human MDA-MB-231 cells assessed as body weight loss at 5 mg/kg, iv administered once every 3 days for 27 days starting from day 3; type: organism-based; conditions: in vivo, 576 h, time 24 day
SK-HEP1 = assay: Cytotoxicity against human SK-HEP1 cells assessed as decrease in cell viability incubated for 24 hrs by CCK-8 assay; type: functional, cell-based; conditions: SK-HEP1, 24 h
[10] = Cytotoxicity against human MCF-10A cells assessed as decrease in cell viability incubated for 24 hrs by CCK-8 assay; type: toxicity, cell-based
[11] = Toxicity in BALB/c nude mouse xenografted in human MDA-MB-231 cells assessed as increase in AST level at 5 mg/kg, iv administered once every 3 days for 27 days; type: organism-based; conditions: in vivo, 576 h, time 24 day
[12] = Toxicity in BALB/c nude mouse xenografted in human MDA-MB-231 cells assessed as increase in urea level at 5 mg/kg, iv administered once every 3 days for 27 days starting from day 3; type: organism-based; conditions: in vivo, 576 h, time 24 day
MDA-MB-231 [13] = assay: Induction of apoptosis in human MDA-MB-231 cells assessed as late apoptotic cells at 16 nM incubated for 24 hrs by AnnexinV-FITC/PI staining based flow cytometry (reference value: 0.034%); type: functional
[14] = Toxicity in BALB/c nude mouse xenografted with human MDA-MB-231 cells assessed as appearance of apoptotic/necrotic cells in liver at 5 mg/kg, iv administered once every 3 days for 27 days starting from day 3 by H and E staining based analysis; type: organism-based; conditions: in vivo, 576 h, time 24 day
MDA-MB-231 [15] = assay: Antitumor activity against human MDA-MB-231 cells xenografted in BALB/c nude mouse assessed as tumor growth inhibition at 5 mg/kg, iv administered once every 3 days for 27 days starting from day 3; type: functional, organism-based; conditions: time 24.0 day
MDA-MB-231 [16] = assay: Antitumor activity against human MDA-MB-231 cells xenografted in BALB/c nude mouse assessed as reduction in tumor volume at 5 mg/kg, iv measured after first injection starting from day 3 on day 6; type: functional, organism-based; conditions: time 3.0 day
MDA-MB-231 [17] = assay: Cytotoxicity against ROR1-positive human MDA-MB-231 cells assessed as decrease in cell viability incubated for 24 hrs by CCK-8 assay; type: functional, cell-based; conditions: MDA-MB-231, 24 h
MDA-MB-231 [18] = assay: Induction of apoptosis in human MDA-MB-231 cells at 10 uM incubated for 24 hrs by Annexin V-FITC/PI staining based flow cytometric analysis; type: functional, cell-based
[19] = Toxicity in BALB/c nude mouse xenografted with human MDA-MB-231 cells assessed as appearance of apoptotic/necrotic cells in lungs at 5 mg/kg, iv administered once every 3 days for 27 days starting from day 3 by H and E staining based analysis; type: organism-based; conditions: in vivo, 576 h, time 24 day

COc1cccc2c1C(=O)c1c(O)c3c(c(O)c1C2=O)C[C@@](O)(C(=O)CO)C[C@@H]3O[C@H]1C[C@H](N)[C@H](O)[C@H](C)O1 [DOXORUBICIN]
Activity (MDA-MB-231 [1]): 24.9% | Activity (MDA-MB-231 [2]): 0.39% | Activity [3]: Toxic | Activity [4]: Toxic | Activity [5]: Toxic | viability at 0.016 µM (MDA-MB-231 [6]): 71.5% | Activity [7]: Toxic | Drug uptake [8]: Active | Activity [9]: Toxic | IC50 (SK-HEP1): 28 nM | IC50 at 24 h [10]: 121 nM | Activity [11]: Toxic | Activity [12]: Toxic | Activity (MDA-MB-231 [13]): 3.25% | Activity [14]: Toxic | Activity (MDA-MB-231 [15]): Not active; Poor Antitumor Effect Observed | Activity (MDA-MB-231 [16]): inactive | IC50 (MDA-MB-231 [17]): 183 nM | Activity (MDA-MB-231 [18]): Active; Exhibited Apoptosis Mostly In Late Stage | Activity [19]: Toxic

Reference: ChEMBL document CHEMBL6083182, “Development of Peptide Paratope Mimics Derived from the Anti-ROR1 Antibody and Long-Acting Peptide-Drug Conjugates for Targeted Cancer Therapy” (J Med Chem, 2024)
